Earlier results, collected in patent US20210113495A1, “METHOD OF TREATING EPILEPSY OR EPILEPTIC ENCEPHALOPATHY WITH FENFLURAMINE IN PATIENTS WITHOUT PULMONARY HYPERTENSION” (ZOGENIX INTERNATIONAL LIMITED, priority 2018, published 2021).

Tests used:
[1] = test system: pulmonary arterial hypertension patients; details: PAH patients who had started treatment with bosentan
[2] = test system: self-induced photosensitive seizures; details: four cases
[3] = test system: child suffering pattern sensitivity-induced seizures; details: one child, seizures resistant to anticonvulsive treatment
[4] = test system: patients with PH
[5] = test system: children with refractory epilepsy; details: dose of 0.5 to 1 mg/kg/day
[6] = test system: patients with PH; details: short-term infusion
[7] = initial right heart catheterization, resting, 15 women who had used fenfluramine, mean (SD)

Structure (SMILES): COc1ccccc1Oc1c(NS(=O)(=O)c2ccc(C(C)(C)C)cc2)nc(-c2ncccn2)nc1OCCO [bosentan]
- patients alive at 2 years [1]: 89%

Structure (SMILES): CCNC(C)Cc1cccc(C(F)(F)F)c1 (racemic) [fenfluramine, (RS)—N-ethyl-1-[3-(trifluoromethyl)phenyl]propan-2-amine]
- response of self-induced photosensitive seizures [2]: responded to treatment with fenfluramine
- effect on self-induced seizures [3]: successfully terminated these self-induced seizures
- users with close temporal relation between fenfluramine use and development of exertional dyspnoea ([4]; 10 of 15 women with PH who had used fenfluramine): 67%
- overall survival, fenfluramine users vs controls ([4]; PH patients, transplant recipients excluded): no significant difference in overall survival
- pulmonary artery pressure (PAP) [4, 7]: 57 (9) mm Hg
- pulmonary vascular resistance (PVR) [4, 7]: 29 (10) U/m^2
- number of seizures experienced by the patients [5]: reduction in the number of seizures

Structure (SMILES): CCCCC[C@H](O)/C=C/[C@@H]1[C@H]2C/C(=C/CCCC(=O)O)O[C@H]2C[C@H]1O [epoprostenol]
- mean fall in PVR compared with control values ([6]; 10 responding patients, mean (SD)): 24 (15%)
- vasodilator response ([6]; 15 women with PH who had used fenfluramine): significant vasodilator response in 10 patients
